Patent publication US10556888B2, “Pyrazole compounds or salts thereof, preparation methods therefor, herbicidal compositions and use thereof” (QINGDAO KINGAGROOT CHEMICAL COMPOUNDS CO., LTD, priority 2015, dated 2020)

Tests used:
[1] = test system: Monocotyledonous and dicotyledonous weed; test: Post-emergence test experiment, weed control effect (Table 2); assay type: in vivo; parameters: key to weed control effect, Setaria viridis (level) / weed control effect, Rorippa indica (level) / weed control effect, Abutilon theophrasti (level) / weed control effect, Echinochloa crus-galli (level) / weed control effect, Digitaria sanguinalis (level): Level 10: completely dead; Level 9: above 90% growth inhibition rate; Level 8: above 80% growth inhibition rate; Level 7: above 70% growth inhibition rate; Level 6: above 60% growth inhibition rate; Level 5: above 50% growth inhibition rate; Level 4: above 30% growth inhibition rate; Level 3: above 20% growth inhibition rate; Level 2: above 10% growth inhibition rate; Level 1: above 1-10% growth inhibition rate; Level 0: no effect; details: 3 weeks after spraying, greenhouse
Outline: (§1)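 Weed and crop seeds (wheat, corn, rice, soybean, cotton, oilseed, millet, sorghum) grown in soil in greenhouse; sprayed at 2-3 leaf stage, 2-3 weeks after sowing, with compound in acetone/Tween 80/water. Effects assessed after 3 weeks further greenhouse culture.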

[2] = test system: main crop (wheat, corn, rice, soybean, cotton, oilseed, millet and sorghum); test: Post-emergence test experiment, main crops (Table 2); assay type: in vivo; parameters: key: Level 10: completely dead; Level 9: above 90% growth inhibition rate; Level 8: above 80% growth inhibition rate; Level 7: above 70% growth inhibition rate; Level 6: above 60% growth inhibition rate; Level 5: above 50% growth inhibition rate; Level 4: above 30% growth inhibition rate; Level 3: above 20% growth inhibition rate; Level 2: above 10% growth inhibition rate; Level 1: above 1-10% growth inhibition rate; Level 0: no effect; details: 3 weeks after spraying, greenhouse
Outline: as §1

Structure (SMILES) | weed control effect, Abutilon theophrasti (level) ([1]; 30 g/ha) | weed control effect, Bidens pilosa (level) ([1]; 30 g/ha) | weed control effect, Digitaria sanguinalis (level) ([1]; 30 g/ha) | weed control effect, Echinochloa crus-galli (level) ([1]; 30 g/ha) | weed control effect, Rorippa indica (level) ([1]; 30 g/ha) | weed control effect, Setaria viridis (level) ([1]; 30 g/ha) | effect on crop, corn (level) ([2]; 30 g/ha) | effect on crop, rice (level) ([2]; 30 g/ha) | effect on crop, wheat (level) ([2]; 30 g/ha) | weed control effect, Abutilon theophrasti (level) ([1]; 120 g/ha) | weed control effect, Bidens pilosa (level) ([1]; 120 g/ha) | weed control effect, Digitaria sanguinalis (level) ([1]; 120 g/ha) | weed control effect, Echinochloa crus-galli (level) ([1]; 120 g/ha) | weed control effect, Rorippa indica (level) ([1]; 120 g/ha) | weed control effect, Setaria viridis (level) ([1]; 120 g/ha) | effect on crop, corn (level) ([2]; 120 g/ha) | effect on crop, rice (level) ([2]; 120 g/ha) | effect on crop, wheat (level) ([2]; 120 g/ha) | other results
C#CCOCc1c(S(C)(=O)=O)ccc(C(=O)c2cnn(C)c2OC(=O)c2cnn(C)c2)c1Cl [Compound 61] | 7 (Level 7: above 70% growth inhibition rate) | 7 (Level 7: above 70% growth inhibition rate) | 7 (Level 7: above 70% growth inhibition rate) | 10 | 10 | 5 (Level 5: above 50% growth inhibition rate) | 0 | 3 (Level 3: above 20% growth inhibition rate) | 0 |  |  |  |  |  |  |  |  |  | 
CCc1nn(C(C)C)c(OC(=O)c2cn(C)nc2C)c1C(=O)c1ccc(S(C)(=O)=O)c(Cn2cccn2)c1Cl [Compound 99] | 7 (Level 7: above 70% growth inhibition rate) | 7 (Level 7: above 70% growth inhibition rate) | 7 (Level 7: above 70% growth inhibition rate) | 10 | 10 | 8 (Level 8: above 80% growth inhibition rate) | 1 (Level 1: above 1-10% growth inhibition rate) | 1 (Level 1: above 1-10% growth inhibition rate) | 0 |  |  |  |  |  |  |  |  |  | 
Cc1cc(C)n(Cc2c(S(C)(=O)=O)ccc(C(=O)c3c(C)nn(C)c3OC(=O)c3cnn(C)c3)c2C)n1 [Compound 79] |  |  |  |  |  |  |  |  |  | 6 (Level 6: above 60% growth inhibition rate) | 6 (Level 6: above 60% growth inhibition rate) | 1 (Level 1: above 1-10% growth inhibition rate) | 10 | 4 (Level 4: above 30% growth inhibition rate) | 3 (Level 3: above 20% growth inhibition rate) | 0 | 0 | 0 | 
Cc1cnn(Cc2c(S(C)(=O)=O)ccc(C(=O)c3c(C4CC4)nn(C)c3OC(=O)c3cn(C)nc3C)c2Cl)c1 [Compound 12] |  |  |  |  |  |  |  |  |  | 6 (Level 6: above 60% growth inhibition rate) | 6 (Level 6: above 60% growth inhibition rate) | 0 | 10 | 4 (Level 4: above 30% growth inhibition rate) | 1 (Level 1: above 1-10% growth inhibition rate) | 0 | 0 | 0 | 
Cc1cnn(Cc2c(S(C)(=O)=O)ccc(C(=O)c3c(C4CC4)nn(C)c3OC(=O)c3cnn(C)c3)c2Cl)c1 [Compound 22] |  |  |  |  |  |  |  |  |  | 6 (Level 6: above 60% growth inhibition rate) | 6 (Level 6: above 60% growth inhibition rate) | 1 (Level 1: above 1-10% growth inhibition rate) | 10 | 4 (Level 4: above 30% growth inhibition rate) | 3 (Level 3: above 20% growth inhibition rate) | 0 | 0 | 0 | 
CCOCc1c(S(C)(=O)=O)ccc(C(=O)c2c(C)nn(C)c2OC(=O)c2cn(C)nc2C)c1Cl [Compound 27] | 7 (Level 7: above 70% growth inhibition rate) | 7 (Level 7: above 70% growth inhibition rate) | 7 (Level 7: above 70% growth inhibition rate) | 9 (Level 9: above 90% growth inhibition rate) | 5 (Level 5: above 50% growth inhibition rate) | 6 (Level 6: above 60% growth inhibition rate) | 0 | 6 (Level 6: above 60% growth inhibition rate) | 0 |  |  |  |  |  |  |  |  |  | 
Cn1cc(C(=O)Oc2c(C(=O)c3ccc(S(C)(=O)=O)c(Cn4cc(Cl)cn4)c3Cl)c(C3CC3)nn2C)cn1 [Compound 18] |  |  |  |  |  |  |  |  |  | 9 (Level 9: above 90% growth inhibition rate) | 8 (Level 8: above 80% growth inhibition rate) | 4 (Level 4: above 30% growth inhibition rate) | 10 | 10 | 5 (Level 5: above 50% growth inhibition rate) | 0 | 1 (Level 1: above 1-10% growth inhibition rate) | 0 | 
CCCCOCc1c(S(C)(=O)=O)ccc(C(=O)c2c(C)nn(C)c2OC(=O)c2cn(C)nc2C)c1Cl [Compound 34] |  |  |  |  |  |  |  |  |  |  |  |  |  |  |  |  |  |  | weed control effect, Abutilon theophrasti (level) ([1]; 60 g/ha): 10; weed control effect, Bidens pilosa (level) ([1]; 60 g/ha): 8 (Level 8: above 80% growth inhibition rate); weed control effect, Digitaria sanguinalis (level) ([1]; 60 g/ha): 10; weed control effect, Echinochloa crus-galli (level) ([1]; 60 g/ha): 10; weed control effect, Rorippa indica (level) ([1]; 60 g/ha): 10; weed control effect, Setaria viridis (level) ([1]; 60 g/ha): 8 (Level 8: above 80% growth inhibition rate); effect on crop, corn (level) ([2]; 60 g/ha): 0; effect on crop, rice (level) ([2]; 60 g/ha): 1 (Level 1: above 1-10% growth inhibition rate); effect on crop, wheat (level) ([2]; 60 g/ha): 0
Cc1nn(C)cc1C(=O)Oc1c(C(=O)c2ccc(S(C)(=O)=O)c(Cn3cc(Cl)cn3)c2Cl)c(C)nn1C [Compound 05] |  |  |  |  |  |  |  |  |  | 9 (Level 9: above 90% growth inhibition rate) | 8 (Level 8: above 80% growth inhibition rate) | 9 (Level 9: above 90% growth inhibition rate) | 10 | 10 | 5 (Level 5: above 50% growth inhibition rate) | 0 | 1 (Level 1: above 1-10% growth inhibition rate) | 0 | 
CCOc1c(C(=O)Oc2c(C(=O)c3ccc(S(C)(=O)=O)c(COCC(F)(F)F)c3Cl)cnn2C)cnn1C [Compound 54] | 7 (Level 7: above 70% growth inhibition rate) | 7 (Level 7: above 70% growth inhibition rate) | 7 (Level 7: above 70% growth inhibition rate) | 10 | 10 | 10 | 1 (Level 1: above 1-10% growth inhibition rate) | 3 (Level 3: above 20% growth inhibition rate) | 0 |  |  |  |  |  |  |  |  |  | 
CCOCc1c(S(C)(=O)=O)ccc(C(=O)c2c(CC)nn(CC)c2OC(=O)c2nn(C)cc2Cl)c1Cl [Compound 104] |  |  |  |  |  |  |  |  |  |  |  |  |  |  |  |  |  |  | weed control effect, Abutilon theophrasti (level) ([1]; 60 g/ha): 10; weed control effect, Bidens pilosa (level) ([1]; 60 g/ha): 8 (Level 8: above 80% growth inhibition rate); weed control effect, Digitaria sanguinalis (level) ([1]; 60 g/ha): 10; weed control effect, Echinochloa crus-galli (level) ([1]; 60 g/ha): 10; weed control effect, Rorippa indica (level) ([1]; 60 g/ha): 10; weed control effect, Setaria viridis (level) ([1]; 60 g/ha): 10; effect on crop, corn (level) ([2]; 60 g/ha): 0; effect on crop, rice (level) ([2]; 60 g/ha): 4 (Level 4: above 30% growth inhibition rate); effect on crop, wheat (level) ([2]; 60 g/ha): 0
